{"source": "patent US12268677B2", "about": "“4-aminopyridine (4-AP) and bone morphogenetic protein 2 (BMP-2)” (The Penn State Research Foundation, priority 2022, dated 2025)", "key": {"[1]": {"tested_on": "tibial fracture in C57BL/6J mice", "test": "Mid-diaphysis tibial fracture healing in mice, micro-CT analysis of callus", "type": "in vivo", "excerpt": "8 week old C57Bl/6J mice were subjected to mid-diaphysis tibial fracture, treated with 4-AP for 21 days, and harvested. FIG. 4A: Representative X-ray images at the end of 21 days of 4-AP treatment. FIG. 4B: Representative micro-CT images of tibia fracture on day 21. […] FIG. 4D: Graphical presentation of Micro CT analysis of bone mineral density (BMD), and bone volume density (BV/TV). Data are presented as mean±SEM (n=6). Values are significant at *p<0.05.\nTen-week-old male C57/BL6J mice were purchased from the Jackson laboratory (Bar Harbor, ME, USA) and were maintained in a 12-h light, 12-h dark cycle at 21.1° C. to 22.8° C. After acclimatization, all mice were randomly divided in to two groups: 1) control and 2) 4-AP.\nA mid diaphysis tibial fracture was performed in ten-week-old male mice. After the mice were anesthetized with ketamine/xylazine, a 5 mm longitudinal incision will be made at the front of the proximal tibia. The mid diaphysis of the tibia will be identified, and an osteotomy will be created with a No. 11 scalpel blade preventing any comminution. A 27G hypodermic needle will be introduced into the tibial canal for intramedullary fixation. Buprenorphine was given as post-operative analgesia. X-ray images were acquired post-operatively and mice received saline or 4-AP on the same day. Control group received 100 μl of saline, and a 4-AP group received 40 μg/mouse/daily 4-AP (1.6 mg/kg) in saline intraperitoneally until day 21 post-surgery.\nFor micro-CT analysis, tibia of control and 4-AP mice were dissected of soft tissue and fixed in neutral buffered formalin. μCT scanning was conducted using a Scanco vivaCT 40. […] Callus area from control and 4-AP mice tibia were assessed for bone mineral density (BMD) and percent bone volume per total volume (% BV/TV).\nTibial fracture was performed in C57BL/6J mice, which were then treated with 4-AP for 21 days for the evaluation of fracture healing parameters. The bone mineral density and bone volume density were determined by micro-CT analysis at the end of 21 days 4-AP treatment."}, "[2]": {"tested_on": "BMP-2 gene expression in human bone marrow mesenchymal stem cells (hBMSCs)", "test": "BMP-2 gene expression in hBMSCs by quantitative real-time PCR", "type": "cell-based", "conditions": "1000 μM 4-AP", "experimental": "FIG. 1. 4-AP upregulates BMP-2 expression in human bone marrow mesenchymal stem cells (hBMSCs). hBMSCs were incubated in Dulbecco's modified Eagle's medium supplemented with 10% FBS and penicillin/streptomycin (100 U/mL penicillin and […] streptomycin) in the presence of 1000 μM 4-AP induced expression of BMP-2 gene. BMP-2 gene expression was increased at day 3 and remained high at day 7 and day 14. The gene expression levels of BMP-2 were normalized with β-actin and were then used to calculate fold change in 4-AP treated compared to control. Data are presented as mean±SEM (n=3). Values are significant at *p<0.05, **p<0.01. Abbreviations used; BMP-2 —bone morphogenetic protein-2. Human bone marrow mesenchymal stem cells (hBMSC) were cultured in growth medium supplemented with 4-AP for 3, 7, and 14 days. Total RNA was isolated from the cells at the end of treatment, converted to cDNA, and the gene expression of bone morphogenetic protein-2 (BMP-2) was analyzed by quantitative real-time PCR. Gene expression by quantitative real-time PCR: Quantitative real-time PCR was carried out to determine gene expression of BMP-2 by hBMSCs incubated in Dulbecco's modified Eagle's medium with 10% fetal bovine serum (FBS) and penicillin/streptomycin (100 U/mL penicillin and […] streptomycin) at a humidified atmosphere of 5% CO2 under 37° C. Cell cultures were supplemented with 1000 μM 4-AP for 3, 7, and 14 days. Total RNA was isolated from the cells and converted to cDNA using verso cDNA synthesis kit (Thermo Fischer Scientific). The cDNA obtained was analyzed in a quantitative real-time PCR (FIG. 1)."}, "BMP-2 protein in hBMSCs": {"tested_on": "BMP-2 protein in hBMSCs", "test": "BMP-2 protein level in hBMSCs by western blot", "type": "cell-based, human", "conditions": "1000 μM 4-AP", "experimental": "FIGS. 2A-2B. Western blot analysis of BMP-2 protein. Incubation of hBMSCs in Dulbecco's modified Eagle's medium supplemented with 10% FBS and penicillin/streptomycin (100 U/mL penicillin and […] streptomycin) in the presence of 1000 μM 4-AP increased BMP-2 protein at day 3, 7, and 14. The blots were stripped and reprobed with anti-GAPDH antibody. FIG. 2A: Representative image of a western blot of BMP-2 at day 3, 7, and 14. FIG. 2B: Densitometric analysis was carried out and the BMP-2 was normalized with GAPDH to calculate fold change. Data are presented as mean±SEM (n=3). Values are significant at *p<0.05, Abbreviations used; 4—AP-4-aminopyridine, BMP-2—bone morphogenetic protein-2, GAPDH-glyceraldehyde-3-phosphate dehydrogenase. Protein level by western blot: Total protein was extracted from hBMSCs with RIPA lysis buffer at the end of 3, 7, and 14 days of 4-AP treatment. The protein concentrations of cell lysates were determined using Pierce BCA Protein Assay kit (Thermo Fischer Scientific). Total cell lysates containing equal amounts of protein were denatured with SDS reducing buffer. The denatured proteins were separated on 10% polyacrylamide gel and transferred to a PVDF membrane. The blots were blocked and probed with primary and secondary antibodies, followed by visualization of bands by chemiluminescence peroxidase substrate. The BMP-2 band intensities were analyzed by ImageJ software (FIGS. 2A and 2B)."}, "[3]": {"tested_on": "BMP-2 gene expression in human fetal osteoblasts (hFOB)", "test": "BMP-2 gene expression in human fetal osteoblasts (hFOB) by quantitative real-time PCR", "type": "cell-based", "conditions": "1000 μM 4-AP for 3 days, normalized with β-actin", "experimental": "FIG. 3. 4-AP upregulates BMP-2 gene expression in human fetal osteoblasts (hFOB). […] The gene expression levels were normalized with β-actin and was then used to calculate fold change in 4-AP treated compared to control. Data are presented as mean±SEM (n=3). Values are significant at *p<0.05. Abbreviations used; 4-AP—4-aminopyridine. Human fetal osteoblasts (hFOB) were cultured in growth medium supplemented with 4-AP for 3 days. Total RNA was isolated from the cells at the end of treatment, converted to cDNA, and the gene expression of bone morphogenetic protein-2 (BMP-2) was analyzed by quantitative real-time PCR (FIG. 3)."}, "[4]": {"conditions": "C57BL/6J mice, tibial fracture, 40 μg/mouse/daily 4-AP (1.6 mg/kg) intraperitoneally, 21 days, micro-CT, compared to saline treated controls"}}}
{"smiles": "Nc1ccncc1", "note": "[4-AP, 4-aminopyridine]", "values": [{"measurement": "bone mineral density within the callus area", "setting": "[1]; [4]", "result": "higher"}, {"measurement": "bone volume density (BV/TV) within the callus area", "setting": "[1]; [4]", "result": "higher"}, {"measurement": "bone fracture healing", "setting": "[1]; C57Bl/6J mice, mid-diaphysis tibial fracture, treated with 4-AP for 21 days", "result": "enhanced"}, {"measurement": "BMP-2 gene expression (fold change vs control, normalized with β-actin)", "setting": "[2]; day 3", "result": "increased"}, {"measurement": "BMP-2 gene expression (fold change vs control, normalized with β-actin)", "setting": "[2]; day 7", "result": "remained high"}, {"measurement": "BMP-2 gene expression (fold change vs control, normalized with β-actin)", "setting": "[2]; day 14", "result": "remained high"}, {"measurement": "BMP-2 protein (western blot, normalized with GAPDH)", "setting": "BMP-2 protein in hBMSCs; day 3", "result": "increased"}, {"measurement": "BMP-2 protein (western blot, normalized with GAPDH)", "setting": "BMP-2 protein in hBMSCs; day 7", "result": "increased"}, {"measurement": "BMP-2 protein (western blot, normalized with GAPDH)", "setting": "BMP-2 protein in hBMSCs; day 14", "result": "increased"}, {"measurement": "expression of BMP-2 compared with the control group", "setting": "[3]", "result": "significantly increased"}]}
